Measurements taken from patent US20050032904A1, “Composition and use of allylamine derivatives” (priority 2003, published 2005).

What was measured:
human fibroblasts = assay: Flow cytometry (FACS) cell cycle analysis; assay type: cell-based
COLO 205 = assay: Determination of cell growth curve (cell counting); assay type: cell-based, human
Method: The effect of TB on the growth of various human cancer cells […]. In FIG. 1, (A) COLO205, (B) HT29, (C) HepG2, (D) Hep3B, (E) HL60, and (F) normal human fibroblast cells were treated with various concentrations of TB (30 to 120 μM). Media with or without TB were renewed daily until cell counting. Three samples were analyzed in each group. Values represent mean±S.E. The cells were cultured for 5 days with or without TB (30-120 μM), and then the cells were harvested and counted. […] The COLO 205 cells were released from quiescence by incubation in culture media supplemented with 10% FCS and 0.05% DMSO without or with 90 μM TB for 24 h. After 24 h treatment with TB, the cells were washed twice with PBS, replaced with fresh 10% FCS without DMSO or TB. […] The cultured cell numbers in DMSO- and TB-treated group were counted every day. Three samples were analyzed in each group, and values represent the mean±S.E. Human colon cancer, hepatoma, leukemia, and human normal fibroblast cells at a density of 1×10^4 were plated in 35-mm Petri dishes. TB was added at the indicated doses in 0.05% dimethyl-sulfoxide (DMSO). For control specimens, the same volume of the 0.05% DMSO without TB was added. Media with and without TB were changed daily until cell counting

COLO 205 tumor tissues = assay: DNA fragmentation analysis / TdT nick end labeling in tumor tissues; assay type: in vivo, nude mouse; conditions: tumor from TB-treated mouse, 6 weeks
HT 29 cells = assay: Flow cytometry (FACS) cell cycle analysis; assay type: cell-based, human
[1] = test system: cdk4 kinase activity in HT 29 cells; assay: Immunoprecipitation and kinase activity assay; assay type: cell-based, human; conditions: 60 μM TB, 15 h; p53 His273 mutant
Method: (§1) (Ko U, and […]. Genes & Development 1996; 10(9): 1054-72; Levine AJ., Cell 1997;88(3):323-31.). […] To further test this hypothesis, we examined the TB effects on the levels of p21/Cip1, p27/Kip1 and p53 protein, and the cdk4 kinase activity in three human cancer cell lines (COLO 205, HT 29 and Hep 3B). […] Antisense or sense p53 was added to COLO 205 at a final concentration of 20 μM at 16 h before the cell was challenged with 10% FCS and 60 μM TB treatment for additional 15 h. […] As previously described (Wu X, et. al., Oncogene 1996;12(7):1397-403.), the TB-treated cells were lysed in Rb lysis buffer, and immunoprecipitated with anti-cdk4 antibody (2 μg). The protein complexes in beads were washed twice with Rb lysis buffer and then once with Rb kinase assay buffer. The level of phosphorylated of Rb (for pRb), histone Hi (for cdk2) and glutathione s-transferase-Rb fusion protein (for cdk4) were measured by incubating the beads with 40 μl of hot Rb kinase solution [0.25 μl (2 μg) of Rb-GST fusion protein, 0.5 μl of (γ-^32P) ATP, 0.5 μl of 0.1 mM ATP and 38.75 μl of Rb kinase buffer] at 37° C. for 30 min, and then stopped by boiling the samples in SDS sample buffer for 5 min. The samples were analyzed by 12% SDS-PAGE, and the gel was then dried and subjected to autoradiography.

[2] = test system: cdk4 kinase activity in COLO 205 cells; assay: Immunoprecipitation and kinase activity assay; assay type: cell-based, human; conditions: 60 μM TB, 15 h after release from quiescence; p53 wild type
Method: as §1

[3] = test system: cdk4 kinase activity in Hep 3B cells; assay: Immunoprecipitation and kinase activity assay; assay type: cell-based, human; conditions: 60 μM TB, 15 h; p53 partial deletion
Method: as §1

[4] = test system: COLO 205 tumor xenografts; assay: Treatment of COLO 205-derived xenografts in vivo; set-up: species or system nude mouse
Method: Genomic DNAs extracted from TB-treated COLO 205 were examined by gel electrophoresis. […] DNA fragmentation was examined at 24 h after drug treatment. In the lanes 2 and 8, cells received mock treatment as controls. […] Comparisons were subjected to ANOVA followed by Fisher's least significant difference test. […] Since, retardation of the cell cycle and/or activation of the cellular apoptotic response are two major mechanisms preventing tumor growth, we examined the TB effect on the cell cycle and apoptosis occurrence of the solid tumor derived from the implanted COLO 205. The COLO-205 cells (5×10^6) in 0.1 ml RPMI 1640 were injected subcutaneously between the scapulae of each nude mouse (purchased from National Science Council animal center, Taipei). […]

[5] = cited from earlier work
COLO 205 cells = assay: DNA fragmentation (DNA ladder) by electrophoresis of genomic DNA; assay type: cell-based, human
Method: Genomic DNAs extracted from TB-treated COLO 205 were examined by gel electrophoresis. […] In FIG. 9, the part of (A) refers to potentiation of ND-induced apoptosis by TB. […] DNA fragmentation was examined at 24 h after drug treatment. In the lanes 2 and 8, cells received mock treatment as controls. The symbols of “M” (in lanes 1 and 7), refer to “DNA size marker.” (B) average tumor volume of DMSO-treated vs. drug-treated nude mice (n=5). (C) tumor weight, (D) animal body weight, and (E) tumor/body weight ratio were measured at the end of experiment. Five samples were analyzed in each group, and values represent the mean±S.E. Comparisons were subjected to ANOVA followed by Fisher's least significant difference test. Significance was accepted at p<0.05. *TB-, ND-, and TB+ND-treated group different from DMSO-treated group. TB+ND-treated group different from TB- or ND-treated group.

## CN(C/C=C/C#CC(C)(C)C)Cc1cccc2ccccc12 [TB, 1-Naphthalenemethanamine, N-(6,6-dimethyl-2-hepten-4-ynyl)-N-methyl-, (E)-]
Human fibroblasts; TB 10-150 μM
  cytotoxicity for untransformed human fibroblasts: not cytotoxic
Human fibroblasts; TB treatment for 15 h
  cell cycle arrest or cell death: did not induce cell cycle arrest or cell death
COLO 205; 90 μM TB for 24 h, then removed
  duration of inhibition of cell proliferation after removal of TB: at least 7 days
COLO 205; 90 μM TB for 24 h, then washed and replaced with fresh 10% FCS
  reversibility of TB-induced inhibition of cell proliferation: not reversed by removal of TB
COLO 205; TB 30-120 μM, 5 days, media renewed daily, dose-dependent
  cell number: decreased cell number
COLO 205; TB concentration increased to 60 μM, 5 days
  cell growth at TB 60 μM: cell growth arrest or cell death
COLO 205 tumor tissues
  apoptosis in COLO 205 tumor (nick end labeling, DNA fragmentation): Induction of apoptosis
HT 29 cells; 90 μM TB after release from quiescence
  accumulation of cells at the G0/G1 phase: > 90%
HT 29 cells; various concentrations of TB, 15 h after release from quiescence, dose-dependent
  G0/G1 arrest, dose effect: induced G0/G1 arrest
[1]
  assayable cdk4 kinase activity: slight decrease
[2]
  assayable cdk4 kinase activity: strong decrease
[3]
  assayable cdk4 kinase activity: slight decrease
[4]; 50 mg/Kg body weight
  cytotoxicity for the vital organs: not cytotoxic for the vital organs
[4]; TB 50 mg/kg, ND 5 mg/kg, intraperitoneal, 3 times per week for 6 weeks
  tumor volume vs. vehicle (DMSO plus peanut oil): reduction in tumor volume
[4]; intraperitoneal TB 50 mg/kg
  tumor size of the COLO 205 tumor mass: substantial decline in tumor size
[5]; adipose tissues, keratin-rich tissues (dermis, epidermis, nail) and other organ tissues
  tissue accumulation: extensively accumulates
[5]; as early as 1 day after stop of medication
  tissue concentrations relative to plasma: exceeded that of plasma
COLO 205 cells; 10 μM TB alone, 24 h
  DNA ladder: does not induce DNA ladder
COLO 205 cells; co-treatment with TB 10 μM and ND
  effect of TB on ND-induced apoptosis: enhanced the ND-induced apoptosis
